In the COVID Moonshot data (paper PMC11187573), “Identification of SARS-CoV-2 Mpro inhibitors through deep reinforcement learning for de novo drug design and computational chemistry approaches” (RSC Medicinal Chemistry, 2024):
pIC50: −log10 of the molar value.

Biological target: SARS-CoV-2 Main Protease (SARS-CoV-2) (UniProt P0DTD1)

Row | Structure (SMILES) | pIC50 | inhibition (50.0 µM) [%] | inhibition (20.0 µM) [%]
1 | O=C(Nc1cncc2ccccc12)C1COc2ccc(Cl)cc21 (centres undefined) | 6.29 | 77 | 
2 | O=C(Cc1cccc(Cl)c1)Nc1cncc2c1CCCN2 | 5.39 |  | 
3 | O=C(Nc1cncc2ccccc12)[C@@H]1COc2ccc(Cl)cc2C1 (stereo in doubt) | 5.45 |  | 
4 | C/C=C1\C(C2(C)CCCC(C)(C)C2)=CCC2C1[C@@H](OC(C)=O)O[C@H]2OC(C)=O (stereo in doubt) |  | 0 | 
5 | O=C(c1cc(=O)[nH]c2ccccc12)N1CCN(c2cccc(Cl)c2)C(=O)C1 | 5.02 |  | 
6 | C[N+]1=C2C=C(N/C=C/c3ccc(O)cc3)C(=O)c3[nH]cc(c32)CC1 |  | 8.91 | 
7 | Cc1c(N)cncc1NC(=O)Cc1cccc(Cl)c1 | 5.09 |  | 
8 | Cc1cc(C(F)(F)F)nc2n[nH]c(NC(=O)Cc3cccc(Cl)c3)c12 | 4.09 |  | 
9 | O=C(Cc1cccc(Cl)c1)Nc1n[nH]c2ccc(F)cc12 | 4.05 |  | 
10 | O=C(Nc1c[nH]c(=O)c2ccccc12)C1CCOc2ccc(Cl)cc21 (centres undefined) | 4.08 |  | 
11 | O=C(c1cc(=O)cc[nH]1)N1CCN(c2cccc(Cl)c2)CC1 | 4.23 |  | 
12 | Nc1nn(C(=O)Cc2cccc(Cl)c2)c2cccc(F)c12 | 4.28 |  | 
13 | CN(C)c1ccc(N(Cc2cscn2)C(=O)Cn2nnc3ccccc32)cc1 | 4.84 |  | 
14 | CC(=O)Nc1cccc(N2CCCC2=O)c1 |  | 22.7 | 11.4
15 | O=C(c1cc(=O)[nH]c2ccccc12)N1CCN(c2cccc(C(F)(F)F)c2)CC1 | 5.25 | 71 | 
16 | COc1cc(COc2cc(Cl)cc(CC(=O)Nc3cnccc3C)c2)ccc1OC(F)F | 5.13 |  | 
17 | CS(=O)(=O)Nc1cccc(C2=NN(C(=O)CCl)C(c3ccccc3)C2)c1 (centres undefined) |  | 57.6 | 
18 | O=C(Nc1cncc2ccccc12)C1COc2c(Cl)cccc21 (centres undefined) | 5.27 |  | 
19 | Cc1ccc(NC2=C(c3ccccc3)C(=O)N(Cc3cccnc3)C2=O)cc1C | 4.36 |  | 
20 | Cc1ccncc1NC(=O)C(CO)c1cccc(Cl)c1 (centres undefined) | 4.32 |  | 

Row | Structure (SMILES) | pIC50 | inhibition (50.0 µM) [%] | inhibition (20.0 µM) [%]
21 | O=C(Nc1ccc(Cl)cc1)[C@@H](c1ccccc1)N1Cc2ccccc2C1=O (stereo in doubt) | 4.19 |  | 
22 | O=C(c1cc(=O)[nH]c2ccccc12)N1CCN(c2cccc(Cl)c2)CC1 | 5.66 | 65.7 | 
23 | O=C(c1cc(=O)[nH]c2ccccc12)N1CCN(Cc2cccc(Cl)c2)CC1 |  | 50.9 | 
24 | Cc1cc(O)c2c3c(ccc2c1)C(=O)c1c(O)cccc1C3=O |  | 5 | 
25 | Cc1ccncc1N1CCC(c2cccc(Cl)c2)C1=O (centres undefined) | 4.89 |  | 
26 | Cc1noc(COc2cc(Cl)cc(CC(=O)Nc3cnccc3C)c2)n1 | 4.62 |  | 
27 | COc1ccc(OCc2ccccc2)cc1-c1cc(=O)c2ccccc2o1 |  | 7.52 | 
28 | CC(=O)NCc1cc(Cl)cc(CC(=O)Nc2cnccc2C)c1 | 4.26 |  | 
29 | C=CC(=O)N(c1cc(C(C)(C)C)on1)C(C(=O)NCCc1cccc(F)c1)c1cncc(C#N)c1 (centres undefined) | 4.98 |  | 
30 | O=C(Cc1cccc(Cl)c1)Nc1nnc2ccccn12 | 4.03 |  | 
31 | CN(C)c1ccc(N(Cc2ccn[nH]2)C(=O)Cn2nnc3ccccc32)cc1 | 4.04 |  | 
32 | CCc1cc(F)ccc1-c1cc(Cl)cc(CC(=O)Nc2cnccc2C)c1 | 4.58 |  | 
33 | O=C(Cc1cccc(Cl)c1)Nc1cnccc1C1CC1 | 5.13 |  | 
34 | CC(C)(C)N1C=CN(C(C)(C)C)[CH]1[Au][Cl] | 6.93 | 100 | 
35 | O=C(c1cncc2ccccc12)N1CCN(c2cccc(Cl)c2)CC1 | 6.08 |  | 
36 | COC(=O)C(C(=O)Nc1cnccc1C)c1cccc(Cl)c1 (centres undefined) | 4.77 |  | 
37 | CC(C)(C)C(=O)C(C#N)C(=O)Nc1ccc(Cl)cc1 (centres undefined) |  | 0 | 
38 | O=C(Cc1cccc(Cl)c1)Nc1cncc2c1CCC2 | 5.33 |  | 
39 | Cc1ccncc1NC(=O)Cc1cc(Cl)cc(NC2CCC(F)(F)C2O)c1 (centres undefined) | 4.59 |  | 
40 | CCCCOc1ccc(Cl)cc1CC(=O)Nc1cnccc1C | 4.80 |  | 

Row | Structure (SMILES) | pIC50 | inhibition (50.0 µM) [%] | inhibition (20.0 µM) [%]
41 | Cc1cc(C(F)(F)F)nc2n[nH]c(NC(=O)C3CCOc4ccc(Cl)cc43)c12 (centres undefined) | 4.01 |  | 
42 | CN(C)c1ccc(N(Cc2ccccc2)C(=O)Cn2nnc3ccccc32)cc1 | 5.81 |  | 
43 | CC(C)C1=C(O)C(=O)C2=C(CC[C@H]3C(C)(C)CCC[C@]23C)C1=O (stereo in doubt) |  | 10.2 | 
44 | COc1ccc(N(Cc2cccc(Cl)c2)C(=O)Cn2nnc3ccccc32)cc1 | 5.25 |  | 
45 | C=CC(=O)N(c1ccc(I)cc1)C(C(=O)Nc1ccc(Cl)cc1)c1cncnc1 (centres undefined) | 5.56 |  | 
46 | COc1cc(Cl)cc2c1OCC[C@@H]2C(=O)Nc1cncc2ccccc12 (stereo in doubt) | 4.99 |  | 
47 | O=C(Cn1nnc2ccccc21)N(Cc1ccsc1)c1ccc(N2CCCCC2)cc1 | 5.20 |  | 
48 | N#CC(C(=O)Nc1ccccc1)C(=O)c1cccs1 (centres undefined) |  | 0 | 
49 | Cc1ccncc1NC(=O)Cc1cc(Cl)cc(-c2ccc(S(C)(=O)=O)cc2Cl)c1 | 4.71 |  | 
50 | O=C(Cc1cccc(Cl)c1)Nc1cnccc1-c1ccccc1 | 4.60 |  | 
51 | COc1ccc2c(=O)c(O)c(-c3ccc(OCc4ccccc4)c(OCc4ccccc4)c3)oc2c1 |  | 14.1 | 
52 | Cc1ccncc1NC(=O)Cc1cc(Cl)cc(-c2ccc(C)c(F)c2F)c1 | 4.25 |  | 
53 | O=C(c1cc(=O)[nH]c2ccccc12)N1CCN(Cc2cccc(C(F)(F)F)c2)CC1 |  | 24.8 | 
54 | O=C(Cn1nnc2ccccc21)N(Cc1ccsc1)c1ccc(N2CCOCC2)cc1 | 4.67 |  | 
55 | Cc1ccncc1NC(=O)Cc1cc(Cl)cc(NC2(C)CCC(F)(F)CC2)c1 | 4.34 |  | 
56 | O=C(Cc1cccc(Cl)c1)Nc1[nH]nc2cc(F)ccc12 | 4.04 |  | 
57 | Cc1ccncc1NC(=O)Cc1cc(Cl)cc(/C=C(/c2ccccc2)C(F)(F)F)c1 | 4.81 |  | 
58 | CNC(=O)Nc1ccc(N(Cc2ccsc2)C(=O)Cn2nnc3ccccc32)cc1 | 4.81 |  | 
59 | O=C(Nc1cccnc1)[C@@H](c1ccccc1)N1Cc2ccccc2C1=O (stereo in doubt) | 4.22 |  | 
